According to PubChem BioAssay AID624462 (National Center for Advancing Translational Sciences (NCATS), 2012):
In brackets after ≈: the same amount, converted by molar mass.

Tested on: PBS pH 7.4 kinetic solubility, LC-UV/MS
Test: qHTS for Inhibitors of mutant isocitrate dehydrogenase 1 (IDH1): Aqueous Kinetic Solubility
Conditions: hits give high values
Text: Malignant glioblastomas (WHO grade IV), including primary and secondary glioblastomas, are among the most lethal with a median survival of one year, and unfortunately they are also the most prevalent type of brain tumors. By and large the standard of care of gliomas remains the use of the oral alkylating agent temozolomide and radiotherapy following surgical tumor resection. There is an urgent unmet medical need for novel therapeutics for gliomas. IDH mutations occur in up to 70% of grade II-IV secondary glioblastomas, and IDH1 R132H is the most prevalent mutation. […] Wild-type (WT) IDH1 catalyzes the conversion of isocitrate to a-ketoglutarate with the concomitant reduction of NADP+ to NADPH. In contrast, IDH1 R132H catalyzes the conversion of a-ketoglutarate to 2-hydroxyglutarate (2-HG) with the concomitant oxidation of NADPH to NADP+ [5]. Recently, a second significant advancement for the field was the finding that IDH is an oncogene, and that its metabolic product 2-HG may contribute to the pathogenesis of IDH-mutated cancers. […] Although this link to cancer is tantalizing, the direct evidence of how 2-HG drives pathogenesis of gliomas and AML remains a subject of further research. This bioassays provides profiling data on aqueous kinetic solubility (PBS @ pH7.4) of the IDH probe. […]
1. […] Concentration of the supernatant was determined by LC-UV or LC-MS/MS

solubility: 54.3 µM (≈ 26.3 µg/mL)
Compound: Cc1ccccc1C(C(=O)NC1CCCC1)N(C(=O)Cn1cnc2ccccc21)c1cccc(F)c1 (stereo unspecified)
